Source: patent US10858339B2, “Aryl cyclopropyl-amino-isoquinolinyl amide compounds” (priority 2017, dated 2020)
Read-outs that look alike come from different tables or passages of the source.

How the values were obtained:
[1] = molecular target: ROCK2 (Homo sapiens, UniProt O75116); test: biochemical; settings: ROCK2, Table 17
[2] = molecular target: ROCK1 (Homo sapiens, UniProt Q13464); test: ROCK kinase inhibition assay, ROCK1 enzyme; assay type: biochemical; settings: ROCK1, Table 17;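 note: kinase reaction with 0.5 µM final ATP, 75 min at room temperature, remaining ATP read by luminescence, percent of DMSO-only control minus background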
ROCK1, sequence (Q13464 whole entry, species assumed): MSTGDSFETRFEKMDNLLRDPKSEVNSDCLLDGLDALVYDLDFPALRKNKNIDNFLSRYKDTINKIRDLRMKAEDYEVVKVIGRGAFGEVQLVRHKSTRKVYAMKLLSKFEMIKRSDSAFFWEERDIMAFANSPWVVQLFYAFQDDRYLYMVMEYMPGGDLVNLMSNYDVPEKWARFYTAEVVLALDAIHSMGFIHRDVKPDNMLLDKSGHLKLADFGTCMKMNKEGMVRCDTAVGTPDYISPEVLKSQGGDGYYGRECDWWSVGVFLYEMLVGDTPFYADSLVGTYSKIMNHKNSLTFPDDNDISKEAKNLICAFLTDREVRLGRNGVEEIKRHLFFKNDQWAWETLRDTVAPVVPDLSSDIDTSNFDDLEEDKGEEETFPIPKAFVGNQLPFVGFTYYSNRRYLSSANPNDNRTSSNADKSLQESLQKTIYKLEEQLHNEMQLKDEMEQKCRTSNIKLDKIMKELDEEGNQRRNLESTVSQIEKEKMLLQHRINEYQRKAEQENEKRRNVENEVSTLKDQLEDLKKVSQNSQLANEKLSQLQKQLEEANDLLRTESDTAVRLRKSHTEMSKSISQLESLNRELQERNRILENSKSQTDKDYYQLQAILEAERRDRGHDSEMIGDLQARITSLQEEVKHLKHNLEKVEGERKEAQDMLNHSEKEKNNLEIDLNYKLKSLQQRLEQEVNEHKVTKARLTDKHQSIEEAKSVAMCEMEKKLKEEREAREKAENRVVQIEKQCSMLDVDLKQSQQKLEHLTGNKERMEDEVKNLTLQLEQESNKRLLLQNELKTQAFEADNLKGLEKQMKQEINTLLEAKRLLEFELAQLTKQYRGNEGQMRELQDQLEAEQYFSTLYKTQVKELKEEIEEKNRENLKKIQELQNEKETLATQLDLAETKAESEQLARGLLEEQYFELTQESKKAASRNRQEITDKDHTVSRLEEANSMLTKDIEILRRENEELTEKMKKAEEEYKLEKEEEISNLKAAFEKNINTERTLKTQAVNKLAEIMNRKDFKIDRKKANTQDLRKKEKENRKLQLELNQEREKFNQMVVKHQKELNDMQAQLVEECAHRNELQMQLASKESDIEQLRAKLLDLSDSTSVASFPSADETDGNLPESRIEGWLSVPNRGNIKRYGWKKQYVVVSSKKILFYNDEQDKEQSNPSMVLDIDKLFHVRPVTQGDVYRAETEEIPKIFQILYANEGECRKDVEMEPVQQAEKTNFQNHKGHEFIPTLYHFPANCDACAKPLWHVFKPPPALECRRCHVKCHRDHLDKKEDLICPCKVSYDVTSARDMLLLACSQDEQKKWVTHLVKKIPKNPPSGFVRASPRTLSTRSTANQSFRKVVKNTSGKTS

[3] = molecular target: T1, JAK3 (Homo sapiens, UniProt P52333); test: JAK kinase assay, JAK3 enzyme; assay type: biochemical; settings: Table 17; read-out: JAK3
T1 sequence (P52333 1-1124): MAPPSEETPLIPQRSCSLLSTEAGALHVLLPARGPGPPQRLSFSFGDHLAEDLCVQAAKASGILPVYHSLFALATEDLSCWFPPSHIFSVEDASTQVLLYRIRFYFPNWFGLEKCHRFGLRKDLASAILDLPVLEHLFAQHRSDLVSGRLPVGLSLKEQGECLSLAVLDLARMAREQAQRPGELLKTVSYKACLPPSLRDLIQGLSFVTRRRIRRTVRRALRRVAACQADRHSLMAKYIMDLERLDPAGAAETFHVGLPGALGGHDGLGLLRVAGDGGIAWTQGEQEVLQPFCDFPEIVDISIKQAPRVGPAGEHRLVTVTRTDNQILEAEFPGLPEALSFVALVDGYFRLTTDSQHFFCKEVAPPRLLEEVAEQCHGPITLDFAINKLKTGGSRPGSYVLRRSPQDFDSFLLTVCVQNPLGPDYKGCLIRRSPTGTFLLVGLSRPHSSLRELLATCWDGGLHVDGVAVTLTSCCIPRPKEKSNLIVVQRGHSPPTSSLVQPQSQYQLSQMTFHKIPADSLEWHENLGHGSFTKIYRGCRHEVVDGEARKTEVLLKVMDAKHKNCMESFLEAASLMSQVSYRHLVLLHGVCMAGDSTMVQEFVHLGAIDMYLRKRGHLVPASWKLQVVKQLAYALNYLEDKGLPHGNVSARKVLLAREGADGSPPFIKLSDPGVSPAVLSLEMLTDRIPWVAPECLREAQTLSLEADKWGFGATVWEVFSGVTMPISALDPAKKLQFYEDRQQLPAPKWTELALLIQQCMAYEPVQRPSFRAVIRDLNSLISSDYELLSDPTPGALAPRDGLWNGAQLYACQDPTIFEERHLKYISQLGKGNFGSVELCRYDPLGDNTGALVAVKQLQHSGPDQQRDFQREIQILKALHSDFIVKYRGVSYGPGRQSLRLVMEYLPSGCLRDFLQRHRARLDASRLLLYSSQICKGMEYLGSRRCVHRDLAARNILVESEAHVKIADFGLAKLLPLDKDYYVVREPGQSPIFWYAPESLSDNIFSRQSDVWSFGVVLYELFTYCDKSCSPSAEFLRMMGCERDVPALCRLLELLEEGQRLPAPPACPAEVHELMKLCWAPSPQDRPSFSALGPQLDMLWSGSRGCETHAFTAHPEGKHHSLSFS

[4] = molecular target: T2, IKKb (Homo sapiens, UniProt O14920); test: IKKb kinase activity; assay type: biochemical; settings: Table 17
T2 sequence (O14920 1-756): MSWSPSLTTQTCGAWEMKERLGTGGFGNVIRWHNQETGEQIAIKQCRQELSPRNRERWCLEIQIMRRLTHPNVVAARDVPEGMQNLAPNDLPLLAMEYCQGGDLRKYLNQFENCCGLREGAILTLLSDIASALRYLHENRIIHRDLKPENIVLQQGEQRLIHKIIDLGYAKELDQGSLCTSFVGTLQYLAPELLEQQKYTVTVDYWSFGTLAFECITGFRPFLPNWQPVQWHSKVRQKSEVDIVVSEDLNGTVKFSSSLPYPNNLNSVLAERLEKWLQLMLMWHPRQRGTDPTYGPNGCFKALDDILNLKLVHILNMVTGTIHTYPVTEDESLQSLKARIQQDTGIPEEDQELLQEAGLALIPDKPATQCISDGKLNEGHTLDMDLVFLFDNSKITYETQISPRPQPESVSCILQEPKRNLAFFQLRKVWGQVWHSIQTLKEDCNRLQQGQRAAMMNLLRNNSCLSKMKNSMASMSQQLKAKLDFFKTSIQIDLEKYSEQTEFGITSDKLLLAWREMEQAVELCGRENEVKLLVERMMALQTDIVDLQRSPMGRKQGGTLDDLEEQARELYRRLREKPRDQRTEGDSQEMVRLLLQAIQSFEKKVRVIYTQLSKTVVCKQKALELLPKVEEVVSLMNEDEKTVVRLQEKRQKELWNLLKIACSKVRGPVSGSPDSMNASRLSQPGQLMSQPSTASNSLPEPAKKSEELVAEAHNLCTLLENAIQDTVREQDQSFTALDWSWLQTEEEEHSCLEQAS

[5] = tested on: Porcine Trabecular Meshwork cells (PTM); test: PTM-HTM assay, actin fiber length in PTM cells; assay type: cell-based; settings: Sus scrofa, read-out: PTM
Protocol: Porcine Trabecular Meshwork cells (PTM) were isolated from freshly obtained enucleated porcine eyes. Immortalized Human Trabecular Meshwork cells (TM-1) were obtained through a kind gift from Donna Peters in the Department of Ophthalmology and Visual Sciences at the University of Wisconsin. Cells were plated onto fibronectin coated glass-bottom 96-well plates and allowed to attach overnight. Media was removed and replaced with test compound in media with 1% fetal bovine serum and incubated for various times. After incubation, cells were formaldehyde fixed, triton solubilized, and stained. PTM cells were stained with Alexa Fluor®488 phalloidin (F-actin) and Hoechst 33342 (nuclei). TM-1 cells were stained with anti-paxillin followed by Alexa Fluor®488 goat-anti-mouse IgG (focal adhesions) and Hoechst 33342 (nuclei). All staining reagents were obtained through Invitrogen. Images were collected on an INCell 2200 imager with a 20× objective. The actin fiber length and total area of focal adhesions were analyzed using custom algorithms developed in the INCell Developer Toolbox, v1.9.3. Data collected were converted to percent of control (untreated cells). Curves were fit to data in GraphPad Prizm using sigmoidal dose-response and constraining top and bottom to 100% and 0%, respectively.

[6] = molecular target: JAK2 (Homo sapiens, UniProt O60674); test: JAK kinase assay, JAK2 enzyme; assay type: biochemical; settings: Table 17; read-out: JAK2;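 note: JAK2 kinase reaction run 75 min at room temperature, leftover ATP read by Kinase-Glo luminescence, 11-point dilution series in 2.5% DMSO, percent of inhibitor-free DMSO control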
JAK2, sequence (O60674 whole entry, species assumed): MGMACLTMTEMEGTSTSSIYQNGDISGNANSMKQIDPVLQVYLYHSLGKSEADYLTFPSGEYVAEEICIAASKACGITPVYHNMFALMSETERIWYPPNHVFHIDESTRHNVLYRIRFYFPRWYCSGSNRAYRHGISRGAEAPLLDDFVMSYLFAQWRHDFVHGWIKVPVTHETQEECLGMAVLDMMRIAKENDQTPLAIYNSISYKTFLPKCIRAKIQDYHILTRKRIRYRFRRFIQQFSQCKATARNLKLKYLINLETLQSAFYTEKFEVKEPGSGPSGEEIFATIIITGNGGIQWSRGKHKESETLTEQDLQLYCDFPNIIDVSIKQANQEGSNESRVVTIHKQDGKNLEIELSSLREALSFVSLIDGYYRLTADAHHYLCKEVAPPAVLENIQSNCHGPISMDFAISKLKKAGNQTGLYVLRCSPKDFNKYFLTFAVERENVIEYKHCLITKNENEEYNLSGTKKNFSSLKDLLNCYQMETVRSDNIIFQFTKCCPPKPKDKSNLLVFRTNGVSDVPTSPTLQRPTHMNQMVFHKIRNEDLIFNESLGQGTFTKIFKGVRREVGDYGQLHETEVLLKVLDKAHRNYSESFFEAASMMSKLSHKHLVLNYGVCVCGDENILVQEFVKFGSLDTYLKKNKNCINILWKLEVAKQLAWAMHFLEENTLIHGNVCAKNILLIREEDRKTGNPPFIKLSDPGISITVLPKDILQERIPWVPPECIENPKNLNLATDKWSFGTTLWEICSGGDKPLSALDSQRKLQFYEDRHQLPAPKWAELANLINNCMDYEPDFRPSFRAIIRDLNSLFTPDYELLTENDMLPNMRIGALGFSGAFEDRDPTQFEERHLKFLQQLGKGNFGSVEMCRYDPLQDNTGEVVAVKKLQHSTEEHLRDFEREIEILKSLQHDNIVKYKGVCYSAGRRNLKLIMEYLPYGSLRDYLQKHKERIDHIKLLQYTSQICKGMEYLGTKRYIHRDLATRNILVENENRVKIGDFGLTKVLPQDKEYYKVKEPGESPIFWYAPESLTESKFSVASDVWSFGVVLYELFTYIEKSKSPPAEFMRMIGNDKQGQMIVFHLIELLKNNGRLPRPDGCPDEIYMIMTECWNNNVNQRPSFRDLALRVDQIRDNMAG

[7] = Rabbit IOP after intracameral injection; assay type: in vivo; settings: intracameral injection of a formulation, FIG. 1
Description: Examples of such assays are described in the following reference, incorporated herein by reference: C. Liljebris, G. Selen, B. Resul, J. Sternschantz, and U. Hacksell, “Derivatives of 17-phenyl-18,19,20-trinorprostaglandin F2α Isopropyl Ester: Potential Anti-glaucoma Agents”, Journal of Medicinal Chemistry 1995, 38 (2): 289-304.

[8] = Table 17, porcine trabecular meshwork cells

ROCK2, sequence (O75116 whole entry, species assumed): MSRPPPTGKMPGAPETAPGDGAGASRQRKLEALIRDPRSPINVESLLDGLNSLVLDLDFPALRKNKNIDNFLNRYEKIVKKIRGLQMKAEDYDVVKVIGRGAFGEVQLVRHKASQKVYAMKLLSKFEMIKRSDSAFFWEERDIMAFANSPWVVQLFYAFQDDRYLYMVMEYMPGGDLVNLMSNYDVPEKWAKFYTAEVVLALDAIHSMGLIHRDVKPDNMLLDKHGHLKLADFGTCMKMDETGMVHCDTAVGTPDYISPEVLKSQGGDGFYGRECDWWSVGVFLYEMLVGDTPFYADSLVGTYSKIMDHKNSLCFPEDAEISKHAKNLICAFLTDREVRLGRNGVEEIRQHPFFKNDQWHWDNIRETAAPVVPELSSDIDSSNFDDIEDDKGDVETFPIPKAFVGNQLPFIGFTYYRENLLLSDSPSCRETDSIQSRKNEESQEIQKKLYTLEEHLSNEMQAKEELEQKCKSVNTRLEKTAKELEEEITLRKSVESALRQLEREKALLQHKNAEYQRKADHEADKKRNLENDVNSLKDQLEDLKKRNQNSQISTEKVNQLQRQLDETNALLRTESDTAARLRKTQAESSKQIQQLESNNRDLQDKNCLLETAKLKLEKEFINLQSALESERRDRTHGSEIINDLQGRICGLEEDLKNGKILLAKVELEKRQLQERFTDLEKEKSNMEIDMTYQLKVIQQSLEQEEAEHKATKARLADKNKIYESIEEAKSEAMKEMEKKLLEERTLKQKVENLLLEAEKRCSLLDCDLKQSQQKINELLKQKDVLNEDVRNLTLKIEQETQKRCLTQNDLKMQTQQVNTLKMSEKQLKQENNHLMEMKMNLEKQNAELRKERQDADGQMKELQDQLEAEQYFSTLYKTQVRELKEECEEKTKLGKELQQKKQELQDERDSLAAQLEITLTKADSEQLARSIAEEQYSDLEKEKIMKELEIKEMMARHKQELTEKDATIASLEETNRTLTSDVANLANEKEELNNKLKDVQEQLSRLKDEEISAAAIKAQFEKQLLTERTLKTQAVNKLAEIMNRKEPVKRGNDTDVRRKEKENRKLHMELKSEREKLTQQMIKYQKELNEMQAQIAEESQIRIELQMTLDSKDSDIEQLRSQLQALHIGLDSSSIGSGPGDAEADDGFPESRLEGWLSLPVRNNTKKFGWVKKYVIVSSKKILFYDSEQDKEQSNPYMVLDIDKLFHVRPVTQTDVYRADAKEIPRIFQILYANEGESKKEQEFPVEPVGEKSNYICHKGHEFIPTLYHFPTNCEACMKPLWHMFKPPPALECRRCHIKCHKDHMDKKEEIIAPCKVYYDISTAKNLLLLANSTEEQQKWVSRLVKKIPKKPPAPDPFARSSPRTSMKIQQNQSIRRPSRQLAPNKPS

Ki [6] | Compound | Ki [1] | Ki [2] | Ki [3] | Ki [4] | IC50 [5, 8] | IC50 [5] | changes (reductions) in rabbit IOP [7]
– | O=C(Nc1ccc2cnccc2c1F)[C@@H]1CC1c1ccc(S(=O)(=O)Nc2ccccn2)cc1 (mixture of isomers) [N-(5-fluoroisoquinolin-6-yl)-2-(4-(N-(pyridin-2-yl)sulfamoyl)phenyl)cyclopropane-1-carboxamide] | 4.9 nM | 10.3 nM | 130 nM | 144 nM | 290 nM | – | –
– | O=C(Nc1ccc2cncc(Cl)c2c1)C1CC1c1ccc(S(=O)(=O)Nc2ccccn2)cc1 (racemic) [rel-N-(4-chloroisoquinolin-6-yl)-2-(4-(N-(pyridin-2-yl)sulfamoyl)phenyl)cyclopropane-1-carboxamide] | – | – | – | 9 nM | 227 nM | – | –
– | O=C(Nc1ccc2cnccc2c1)[C@@H]1C[C@H]1c1ccc(S(=O)(=O)Nc2ccccn2)cc1 [(1R,2R)-N-(isoquinolin-6-yl)-2-(4-(N-(pyridin-2-yl)sulfamoyl)phenyl) cyclopropane-1-carboxamide] | – | – | 4.3 nM | – | – | 61 nM | –
3000 nM | O=C(Nc1ccc2cnccc2c1)[C@@H]1C[C@H]1c1ccc(F)c(S(=O)(=O)Nc2ccccc2)c1 [drawing 674] | 240 nM | 150 nM | 7500 nM | – | – | – | –
– | (1R,2R)—N-(fluoroisoquinolin-6-yl)-2-(4-(pyridinylmethyl)phenyl)cyclopropane-1-carboxamide | – | – | – | – | – | – | reductions
